pIC50: −log10 of the molar value. The source made the active and inactive calls. Unless noted, the calls are words filed in the database; no cut-off is given here.
Legend:
[1] = Cytotoxicity against human foreskin fibroblasts after 5 days by colorimetric assay; format: cell-based; settings: human foreskin fibroblasts (HFF cells), read-out: TD50
Toxoplasma gondii [2] = assay: Antiparasitic activity against Toxoplasma gondii infected in human foreskin fibroblasts assessed as inhibition of invasion compound pretreated at 10 uM for 20 mins before infection after 1 hr by fluorescence assay; format: functional, organism-based
Toxoplasma gondii [3] = assay: Antiparasitic activity against Toxoplasma gondii infected in human foreskin fibroblasts assessed as inhibition of attachment compound pretreated at 10 uM for 20 mins before infection after 1 hr by fluorescence assay; format: functional, organism-based
Toxoplasma gondii [4] = assay: Antiparasitic activity against Toxoplasma gondii infected in human foreskin fibroblasts assessed as inhibition of replication measured as decrease in the number of tachyzoites in vacuole at 10 uM after 24 hrs by fluorescence assay; format: functional, organism-based
[5] = Therapeutic index, ratio of TD50 for human foreskin fibroblasts to IC50 for Toxoplasma gondii infected in human foreskin fibroblasts; settings: read-out: TI
Toxoplasma gondii [6] = assay: Antiparasitic activity against Toxoplasma gondii infected in human foreskin fibroblasts assessed as tachyzoite growth inhibition after 5 days by colorimetric assay; format: functional, organism-based; settings: 120 h
Toxoplasma gondii [7] = assay: Antiparasitic activity against Toxoplasma gondii infected in human foreskin fibroblasts assessed as inhibition of replication measured as recovery at 10 uM for 24 hrs followed by washout measured after 96 hrs by fluorescence assay; format: functional, organism-based
Toxoplasma gondii [8] = assay: Antiparasitic activity against Toxoplasma gondii infected in human foreskin fibroblasts assessed as inhibition of tachyzoite replication compound pretreated at 10 uM for 24 hrs before infection by fluorescence assay; format: functional, organism-based

| Compound | CC50 at 120 h [1] [µM] | inhibition (Toxoplasma gondii [2]) | inhibition (Toxoplasma gondii [3]) | inhibition (Toxoplasma gondii [4]) | selectivity ratio [5] | pIC50 (Toxoplasma gondii [6]) | IC90 (Toxoplasma gondii [6]) [µM] | inhibition (Toxoplasma gondii [7]) | inhibition (Toxoplasma gondii [8]) |
| --- | --- | --- | --- | --- | --- | --- | --- | --- | --- |
| O=C1CSC(NN=C2CCCC2)=N1 | ≥ 320 | Active | Active | Active | 21 | 4.57 | 175 | – | – |
| O=C1CS/C(=N/N=C\c2cccc3ccccc23)N1 | ≥ 320 | Active | Active | Active | 144 | 5.41 | 31 | inactive | – |
| C/C(=N/N=C1/SCC(=O)N1Cc1ccccc1)c1cccs1 | ≥ 320 | Active | Active | Active | 15 | 4.43 | 84 | – | – |
| CCCCCC/C(C)=N\N=C1/NC(=O)CS1 | ≥ 320 | Active | Active | Active | 18 | 4.51 | 188 | – | – |
| O=C1CS/C(=N/N=C\c2ccncc2)N1 | ≥ 320 | Active | Active | Active | 28 | 4.70 | 129 | – | – |
| C/C(=N/N=C1\NC(=O)CS1)c1cc2ccccc2oc1=O | ≥ 320 | Active | Active | – | 70 | 5.10 | 49 | – | – |
| CC1CC/C(=N/N=C2\NC(=O)CS2)C1 (stereo unspecified) | ≥ 320 | Active | Active | Active | 23 | 4.62 | 154 | – | – |
| C/C(CC(C)C)=N/N=C1\NC(=O)CS1 | 290 | Active | Active | Active | 13 | 4.64 | 126 | – | – |
| CC1CCC/C1=N/N=C1\NC(=O)CS1 (stereo unspecified) | 35 | Active | Active | Active | 39 | 6.05 | 2 | – | – |
| CC(C)=N/N=C1\NC(=O)CS1 | ≥ 320 | – | – | Active | 3 | 3.68 | 852 | – | inactive |
| CCCC/C(CC)=N\N=C1\SCC(=O)N1Cc1ccccc1 | ≥ 320 | Active | Active | Active | 37 | 4.82 | 121 | – | – |
| O=C1CSC(NN=C2CCCCC2)=N1 | ≥ 320 | Active | Active | Active | 20 | 4.55 | 278 | – | – |
| C/C(=N/N=C1/SCC(=O)N1Cc1ccccc1)c1ccncc1 | 183 | Active | Active | Active | 5 | 4.44 | 103 | – | – |
| C/C(=N\N=C1/NC(=O)CS1)c1ccncc1 | ≥ 320 | – | – | Active | 11 | 4.28 | 401 | – | – |
| O=C1CS/C(=N/N=C\c2cccnc2)N1 | ≥ 320 | – | – | Active | 11 | 4.28 | 268 | – | – |
| O=C1CS/C(=N/N=C\c2c[nH]c3ccccc23)N1Cc1ccccc1 | 102 | – | – | Active | 2 | 4.28 | 177 | – | – |
| C/C(=N/N=C1\NC(=O)CS1)c1ccccc1 | ≥ 320 | – | – | Active | 5 | 3.94 | 262 | – | – |
| COc1cc(Cc2cnc(N)nc2N)cc(OC)c1OC [TRIMETHOPRIM] | ≥ 320 | – | – | Active | 43 | 4.89 | 73 | – | – |
| O=C1CS/C(=N/N=C\c2cccc3ccccc23)N1Cc1ccccc1 | ≥ 320 | Active | Active | – | 15 | 4.42 | 79 | – | – |

Reference: ChEMBL document CHEMBL3352341, “Design, synthesis and biological characterization of thiazolidin-4-one derivatives as promising inhibitors of Toxoplasma gondii” (Eur J Med Chem, 2014)
